{"source": "ChEMBL document CHEMBL1201862", "about": "“PubChem BioAssay data set” (2004)", "key": {"Cytochrome P450 2C19": {"target": "Cytochrome P450 2C19 (Homo sapiens, UniProt P33261)", "sequence (P33261 whole entry)": "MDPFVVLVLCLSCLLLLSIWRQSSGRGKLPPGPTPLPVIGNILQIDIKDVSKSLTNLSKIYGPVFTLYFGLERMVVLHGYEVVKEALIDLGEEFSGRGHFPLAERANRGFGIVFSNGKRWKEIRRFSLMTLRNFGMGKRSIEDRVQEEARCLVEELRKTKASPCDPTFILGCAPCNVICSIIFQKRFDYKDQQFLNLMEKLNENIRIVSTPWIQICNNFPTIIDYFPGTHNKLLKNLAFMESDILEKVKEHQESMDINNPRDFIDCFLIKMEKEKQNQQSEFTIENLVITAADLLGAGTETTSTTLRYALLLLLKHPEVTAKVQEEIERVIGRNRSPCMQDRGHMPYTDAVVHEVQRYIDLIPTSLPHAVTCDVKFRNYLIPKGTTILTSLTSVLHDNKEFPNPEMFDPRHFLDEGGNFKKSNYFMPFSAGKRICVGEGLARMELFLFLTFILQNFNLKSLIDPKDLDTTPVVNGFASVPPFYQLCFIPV", "assay": "Cytochrome panel assay with activity outcomes. Panel member name: p450-cyp2c19 Compounds with AC50 equal or less than 10 uM are considered active", "format": "functional", "settings": "read-out: AC50"}, "[1]": {"target": "T1, Carboxy-terminal domain RNA polymerase II polypeptide A small phosphatase 1 (Homo sapiens, UniProt Q9GZU7)", "T1 sequence (Q9GZU7 whole entry)": "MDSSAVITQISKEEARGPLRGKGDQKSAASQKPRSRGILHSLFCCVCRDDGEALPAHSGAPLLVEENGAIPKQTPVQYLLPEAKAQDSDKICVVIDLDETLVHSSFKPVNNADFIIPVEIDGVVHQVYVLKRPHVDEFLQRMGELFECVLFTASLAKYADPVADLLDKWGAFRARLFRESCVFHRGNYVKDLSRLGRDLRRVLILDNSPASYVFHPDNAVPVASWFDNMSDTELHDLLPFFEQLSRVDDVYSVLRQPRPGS", "assay": "inhibitors of CTDSP1, concentration-response testing, biochemical assay, absorbance-based, actives from ultra-high-throughput screening (AID 540297)", "format": "functional"}, "[2]": {"target": "T2, Low molecular weight phosphotyrosine protein phosphatase (Homo sapiens, UniProt P24666)", "T2 sequence (P24666 whole entry)": "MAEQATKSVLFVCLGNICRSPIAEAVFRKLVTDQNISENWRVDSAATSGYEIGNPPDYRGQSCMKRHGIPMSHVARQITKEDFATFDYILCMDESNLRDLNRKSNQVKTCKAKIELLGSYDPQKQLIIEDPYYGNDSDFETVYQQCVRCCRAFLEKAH", "format": "functional", "settings": "read-out: IC50_Mean"}, "[3]": {"target": "T2, Low molecular weight phosphotyrosine protein phosphatase", "format": "functional", "settings": "read-out: IC50_Mean", "remark": "listed apart in the source"}, "[4]": {"target": "T3, Tyrosine-protein phosphatase non-receptor type 22 (Homo sapiens, UniProt Q9Y2R2)", "T3 sequence (Q9Y2R2 whole entry)": "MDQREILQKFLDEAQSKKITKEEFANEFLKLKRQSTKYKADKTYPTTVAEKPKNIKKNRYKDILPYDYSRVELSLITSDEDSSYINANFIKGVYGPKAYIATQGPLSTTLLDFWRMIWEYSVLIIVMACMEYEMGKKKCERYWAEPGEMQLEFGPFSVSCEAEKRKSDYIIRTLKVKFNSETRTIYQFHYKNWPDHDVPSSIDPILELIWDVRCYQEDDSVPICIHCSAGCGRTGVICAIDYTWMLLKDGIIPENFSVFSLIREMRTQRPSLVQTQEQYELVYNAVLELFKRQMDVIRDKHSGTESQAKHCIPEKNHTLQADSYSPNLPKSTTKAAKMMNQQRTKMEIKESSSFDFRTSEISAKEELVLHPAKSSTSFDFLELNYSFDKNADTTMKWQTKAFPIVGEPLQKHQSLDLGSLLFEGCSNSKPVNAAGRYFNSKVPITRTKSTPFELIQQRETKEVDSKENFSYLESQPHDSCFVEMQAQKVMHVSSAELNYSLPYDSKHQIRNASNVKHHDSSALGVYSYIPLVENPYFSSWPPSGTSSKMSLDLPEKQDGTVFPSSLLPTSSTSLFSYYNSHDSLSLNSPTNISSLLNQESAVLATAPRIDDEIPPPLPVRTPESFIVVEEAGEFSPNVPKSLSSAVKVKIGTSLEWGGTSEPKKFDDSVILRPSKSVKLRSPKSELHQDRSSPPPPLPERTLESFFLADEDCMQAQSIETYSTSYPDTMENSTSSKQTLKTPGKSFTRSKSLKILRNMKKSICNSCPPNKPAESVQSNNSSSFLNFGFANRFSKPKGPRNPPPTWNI", "assay": "LYP phosphatase inhibition for selectivity, dose response, selectivity assay for LMPTP inhibitor project, biochemical, fluorescence, LYP catalytic domain (AID 652006)", "format": "functional", "settings": "read-out: IC50_Mean"}, "Cytochrome P450 2C9": {"target": "Cytochrome P450 2C9 (Homo sapiens, UniProt P11712)", "sequence (P11712 whole entry)": "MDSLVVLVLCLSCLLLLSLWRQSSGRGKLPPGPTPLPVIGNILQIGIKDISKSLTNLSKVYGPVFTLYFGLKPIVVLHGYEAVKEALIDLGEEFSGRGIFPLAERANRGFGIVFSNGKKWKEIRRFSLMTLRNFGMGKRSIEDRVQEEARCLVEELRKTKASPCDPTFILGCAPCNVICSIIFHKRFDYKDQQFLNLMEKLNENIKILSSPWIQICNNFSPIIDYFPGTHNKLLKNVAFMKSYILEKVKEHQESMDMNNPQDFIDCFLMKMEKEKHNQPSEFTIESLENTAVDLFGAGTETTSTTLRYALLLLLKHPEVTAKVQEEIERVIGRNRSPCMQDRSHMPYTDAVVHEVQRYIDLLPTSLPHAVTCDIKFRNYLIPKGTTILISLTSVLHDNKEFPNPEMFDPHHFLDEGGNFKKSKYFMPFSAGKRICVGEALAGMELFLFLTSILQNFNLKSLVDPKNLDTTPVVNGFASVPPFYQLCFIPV"}, "[5]": {"target": "T4, Sentrin-specific protease 1 (Homo sapiens, UniProt Q9P0U3)", "T4 sequence (Q9P0U3 whole entry)": "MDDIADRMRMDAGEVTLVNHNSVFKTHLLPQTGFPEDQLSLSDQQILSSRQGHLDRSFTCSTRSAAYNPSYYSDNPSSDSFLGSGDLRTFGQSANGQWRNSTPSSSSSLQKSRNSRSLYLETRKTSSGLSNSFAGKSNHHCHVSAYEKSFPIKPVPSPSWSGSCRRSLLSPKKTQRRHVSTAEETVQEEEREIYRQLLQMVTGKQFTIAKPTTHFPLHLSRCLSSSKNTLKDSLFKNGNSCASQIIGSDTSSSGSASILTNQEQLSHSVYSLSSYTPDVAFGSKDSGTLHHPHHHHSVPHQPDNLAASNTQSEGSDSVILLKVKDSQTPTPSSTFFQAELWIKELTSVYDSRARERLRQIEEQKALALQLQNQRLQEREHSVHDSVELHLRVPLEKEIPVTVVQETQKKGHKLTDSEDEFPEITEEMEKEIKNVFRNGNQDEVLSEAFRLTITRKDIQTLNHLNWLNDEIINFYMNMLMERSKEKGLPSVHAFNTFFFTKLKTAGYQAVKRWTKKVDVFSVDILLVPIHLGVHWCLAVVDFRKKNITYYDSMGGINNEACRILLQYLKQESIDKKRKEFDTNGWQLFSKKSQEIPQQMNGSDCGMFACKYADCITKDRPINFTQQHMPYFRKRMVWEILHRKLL", "assay": "potency of human SENP1 inhibitors, dose response, biochemical, kinetic FRET (AID 651697)", "format": "functional", "settings": "read-out: IC50_Mean"}, "[6]": {"target": "T4, Sentrin-specific protease 1", "assay": "Dose response confirmation of small molecule inhibitors of the catalytic domain of the SUMO protease, SENP1 in a FRET assay.", "format": "functional", "settings": "read-out: IC50_Mean"}, "[7]": {"target": "T5, Ubiquitin-conjugating enzyme E2 N (Homo sapiens, UniProt P61088)", "T5 sequence (P61088 whole entry)": "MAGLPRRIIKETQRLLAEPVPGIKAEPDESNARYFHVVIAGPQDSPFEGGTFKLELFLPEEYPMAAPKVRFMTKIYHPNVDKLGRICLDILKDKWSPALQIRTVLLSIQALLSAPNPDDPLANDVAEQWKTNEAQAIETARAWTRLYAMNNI", "format": "functional"}, "HeLa": {"tested_on": "HeLa", "assay": "HeLa cell cytotoxicity, dose response, cytotoxicity control, ATP luminescence, cherry-pick samples (AID 687004)", "format": "functional, cell-based", "settings": "Homo sapiens"}, "[8]": {"target": "DNA repair protein RAD52 homolog (Homo sapiens, UniProt P43351)", "sequence (P43351 whole entry)": "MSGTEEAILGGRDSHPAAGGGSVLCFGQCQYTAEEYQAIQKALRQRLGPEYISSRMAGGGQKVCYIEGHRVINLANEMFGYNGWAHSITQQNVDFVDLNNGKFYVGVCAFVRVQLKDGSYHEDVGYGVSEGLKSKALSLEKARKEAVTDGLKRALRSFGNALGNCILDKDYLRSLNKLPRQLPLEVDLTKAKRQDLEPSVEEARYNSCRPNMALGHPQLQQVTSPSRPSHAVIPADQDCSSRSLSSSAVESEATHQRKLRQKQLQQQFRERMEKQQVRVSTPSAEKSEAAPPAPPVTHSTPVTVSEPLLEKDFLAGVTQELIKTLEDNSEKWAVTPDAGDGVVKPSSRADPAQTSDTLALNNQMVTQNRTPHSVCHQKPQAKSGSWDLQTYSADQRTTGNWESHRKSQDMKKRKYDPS", "format": "functional, biochemical"}, "Beta-lactamase [9]": {"target": "Beta-lactamase (Salmonella choleraesuis (strain SC-B67), UniProt Q5J463)", "sequence (Q5J463 whole entry)": "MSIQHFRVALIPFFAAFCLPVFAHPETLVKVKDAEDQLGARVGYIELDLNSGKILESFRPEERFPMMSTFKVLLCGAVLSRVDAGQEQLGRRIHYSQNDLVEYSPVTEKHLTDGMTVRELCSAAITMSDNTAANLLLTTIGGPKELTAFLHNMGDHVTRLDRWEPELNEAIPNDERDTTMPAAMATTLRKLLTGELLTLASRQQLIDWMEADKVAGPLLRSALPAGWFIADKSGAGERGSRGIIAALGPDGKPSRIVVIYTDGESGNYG", "assay": "Epi-absorbance-based counterscreen for selective VIM-2 inhibitors: dose response biochemical high throughput screening assay to identify inhibitors of TEM-1 serine-beta-lactamase."}, "Beta-lactamase [10]": {"target": "T6, Beta-lactamase (Pseudomonas aeruginosa, UniProt Q79MP6)", "T6 sequence (Q79MP6 whole entry)": "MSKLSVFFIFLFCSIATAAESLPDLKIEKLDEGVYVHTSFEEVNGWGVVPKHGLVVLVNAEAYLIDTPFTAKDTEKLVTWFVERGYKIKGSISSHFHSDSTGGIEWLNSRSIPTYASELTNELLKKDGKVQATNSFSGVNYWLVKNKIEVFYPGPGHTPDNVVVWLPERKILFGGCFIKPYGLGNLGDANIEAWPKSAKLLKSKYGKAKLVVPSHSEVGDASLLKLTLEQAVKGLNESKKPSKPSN", "assay": "IMP-1 metallo-beta-lactamase inhibitors, dose response, selectivity assay for VIM-2 inhibitor project, biochemical, epi-absorbance (AID 1920)"}, "Beta-lactamase [11]": {"target": "T6, Beta-lactamase", "assay": "[…] counterscreen for selective VIM-2 inhibitors: dose response biochemical high throughput screening assay to identify inhibitors of IMP-1 metallo-beta-lactamase."}, "[12]": {"target": "Fructose-bisphosphate aldolase (Mycobacterium tuberculosis, UniProt P9WQA3)", "sequence (P9WQA3 whole entry)": "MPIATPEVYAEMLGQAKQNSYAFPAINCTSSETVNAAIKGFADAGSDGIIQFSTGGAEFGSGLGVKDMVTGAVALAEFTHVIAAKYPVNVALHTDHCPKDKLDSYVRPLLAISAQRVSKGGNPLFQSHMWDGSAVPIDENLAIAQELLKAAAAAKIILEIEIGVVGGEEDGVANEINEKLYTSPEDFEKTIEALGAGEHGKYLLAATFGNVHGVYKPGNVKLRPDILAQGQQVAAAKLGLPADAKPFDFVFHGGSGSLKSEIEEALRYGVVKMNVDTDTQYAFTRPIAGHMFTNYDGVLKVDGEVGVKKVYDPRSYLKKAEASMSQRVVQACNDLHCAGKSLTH", "assay": "Fluorescence-based biochemical high throughput dose response assay for inhibitors of the fructose-bisphosphate aldolase (FBA) of M. tuberculosis.", "format": "functional"}, "[13]": {"assay": "Luminescence Cell-Based Dose Confirmation HTS to Identify Activators of 5'UTR Stem-Loop Driven Alpha-Synuclein mRNA Translation in H4 Neuroglioblastoma Cells. [Related pubchem assays: 1829 (Project Summary), 1814 (Primary HTS)]", "format": "functional"}, "[14]": {"assay": "Luminescence Cell-Based Dose Response HTS to Identify Activators of Luciferase Translation or Activity in H4 […] Cells. [Related pubchem assays: 1829 (Project Summary), 1814 (Primary HTS)]", "format": "functional"}, "cells [15]": {"assay": "cells", "format": "functional, cell-based"}, "H4": {"tested_on": "H4", "assay": "Luminescence Cell-Based Dose Response HTS to Identify Activators of 5'UTR Stem-Loop Driven Prion Protein mRNA Translation in H4 Neuroglioblastoma Cells. [Related pubchem assays: 1829 (Project Summary), 1814 (Primary HTS)]", "format": "functional", "settings": "Homo sapiens"}, "cells [16]": {"assay": "cells", "format": "functional, cell-based", "remark": "listed apart in the source"}, "[17]": {"assay": "DNA binding of candidate compounds, dose response, artefact control for RAD54 inhibitor project, biochemical, fluorescence polarization, cherry-pick (AID 651673)", "format": "functional"}, "[18]": {"target": "T7, DNA repair and recombination protein RAD54-like (Homo sapiens, UniProt Q92698)", "T7 sequence (Q92698 whole entry)": "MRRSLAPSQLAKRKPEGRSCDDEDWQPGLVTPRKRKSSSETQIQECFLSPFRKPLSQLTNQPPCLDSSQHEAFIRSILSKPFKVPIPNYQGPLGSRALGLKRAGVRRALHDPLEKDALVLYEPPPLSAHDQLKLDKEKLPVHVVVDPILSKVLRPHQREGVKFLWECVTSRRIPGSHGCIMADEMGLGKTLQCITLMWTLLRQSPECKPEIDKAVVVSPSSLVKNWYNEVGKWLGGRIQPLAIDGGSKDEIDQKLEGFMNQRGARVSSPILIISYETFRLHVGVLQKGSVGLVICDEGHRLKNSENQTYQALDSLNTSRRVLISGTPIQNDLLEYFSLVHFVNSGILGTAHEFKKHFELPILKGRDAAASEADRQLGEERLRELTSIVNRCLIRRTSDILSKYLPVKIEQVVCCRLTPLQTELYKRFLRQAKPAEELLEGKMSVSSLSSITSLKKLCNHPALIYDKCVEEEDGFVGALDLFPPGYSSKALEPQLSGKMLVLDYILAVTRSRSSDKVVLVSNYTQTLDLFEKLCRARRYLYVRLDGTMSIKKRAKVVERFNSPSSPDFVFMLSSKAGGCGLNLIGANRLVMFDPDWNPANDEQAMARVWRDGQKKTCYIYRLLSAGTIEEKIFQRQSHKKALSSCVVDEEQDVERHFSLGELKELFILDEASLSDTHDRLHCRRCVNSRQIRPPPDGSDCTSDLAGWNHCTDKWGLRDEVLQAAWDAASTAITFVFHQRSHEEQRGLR", "assay": "inhibitors of human RAD54 branch migration, confirmation, biochemical, fluorescence, cherry-picked samples, dose series (AID 651657)", "format": "functional"}, "Cytochrome P450 2D6": {"target": "Cytochrome P450 2D6 (Homo sapiens, UniProt P10635)", "sequence (P10635 whole entry)": "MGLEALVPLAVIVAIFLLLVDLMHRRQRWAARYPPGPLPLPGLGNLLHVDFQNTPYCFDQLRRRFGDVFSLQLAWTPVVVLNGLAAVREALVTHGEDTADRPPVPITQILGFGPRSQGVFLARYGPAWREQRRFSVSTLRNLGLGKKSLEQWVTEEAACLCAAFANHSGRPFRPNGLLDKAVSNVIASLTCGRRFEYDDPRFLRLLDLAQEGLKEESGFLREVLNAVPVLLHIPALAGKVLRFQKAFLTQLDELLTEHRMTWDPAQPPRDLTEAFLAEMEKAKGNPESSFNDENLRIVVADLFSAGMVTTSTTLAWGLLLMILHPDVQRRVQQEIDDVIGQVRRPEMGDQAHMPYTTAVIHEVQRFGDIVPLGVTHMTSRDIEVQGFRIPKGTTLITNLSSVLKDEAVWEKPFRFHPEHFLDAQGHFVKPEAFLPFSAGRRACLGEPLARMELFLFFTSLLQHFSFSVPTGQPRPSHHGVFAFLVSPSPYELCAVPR"}, "[19]": {"target": "Nuclear receptor subfamily 5 group A member 2 (Homo sapiens, UniProt O00482)", "sequence (O00482 whole entry)": "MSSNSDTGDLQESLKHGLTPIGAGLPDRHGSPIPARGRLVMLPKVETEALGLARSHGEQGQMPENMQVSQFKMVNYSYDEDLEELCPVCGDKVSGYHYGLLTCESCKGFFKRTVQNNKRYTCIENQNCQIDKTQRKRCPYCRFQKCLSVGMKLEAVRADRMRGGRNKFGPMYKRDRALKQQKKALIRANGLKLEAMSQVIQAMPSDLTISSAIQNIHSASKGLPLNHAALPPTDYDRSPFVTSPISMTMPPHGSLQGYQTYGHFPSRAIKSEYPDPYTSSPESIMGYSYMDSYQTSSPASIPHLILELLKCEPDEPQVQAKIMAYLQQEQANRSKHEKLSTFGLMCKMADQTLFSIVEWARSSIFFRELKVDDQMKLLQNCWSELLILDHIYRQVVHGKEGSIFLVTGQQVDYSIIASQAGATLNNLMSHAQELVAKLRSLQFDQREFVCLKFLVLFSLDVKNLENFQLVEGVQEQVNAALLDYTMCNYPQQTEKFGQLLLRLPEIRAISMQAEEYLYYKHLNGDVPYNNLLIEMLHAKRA", "format": "functional, cell-based"}, "Steroidogenic factor 1": {"target": "Steroidogenic factor 1 (Homo sapiens, UniProt Q13285)", "sequence (Q13285 whole entry)": "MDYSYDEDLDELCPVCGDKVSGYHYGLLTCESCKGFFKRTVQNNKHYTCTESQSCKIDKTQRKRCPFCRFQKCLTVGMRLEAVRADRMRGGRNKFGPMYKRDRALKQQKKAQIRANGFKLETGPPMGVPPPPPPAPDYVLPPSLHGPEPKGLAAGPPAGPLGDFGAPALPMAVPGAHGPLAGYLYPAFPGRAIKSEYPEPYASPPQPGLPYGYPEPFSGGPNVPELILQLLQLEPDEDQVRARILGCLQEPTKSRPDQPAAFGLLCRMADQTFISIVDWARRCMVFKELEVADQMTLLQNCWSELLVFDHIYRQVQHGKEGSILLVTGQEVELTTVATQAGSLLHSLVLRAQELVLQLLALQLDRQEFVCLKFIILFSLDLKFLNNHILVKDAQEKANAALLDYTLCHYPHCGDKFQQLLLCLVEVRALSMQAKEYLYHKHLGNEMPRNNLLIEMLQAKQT", "assay": "Counterscreen for inverse agonists of the liver receptor homolog-1 (LRH-1; NR5A2): Luminescence-based cell-based high throughput dose response assay to identify inverse agonists of the Steroidogenic Factor 1 Nuclear Receptor (SF1; NR5A1).", "format": "functional"}, "[20]": {"assay": "StAR promoter reporter inhibition counter-screen, dose response, counter-screen for LRH-1 inverse agonist project, cell-based, luminescence, luciferase reporter (AID 651969)", "format": "functional"}}, "note": "The source made the active and inactive calls.", "data": [{"molecule": "O=C(NNC(=O)c1cc2cc3ccccc3nc2s1)c1cccc(Cl)c1", "values": [{"measurement": "AC50", "setting": "Cytochrome P450 2C19", "result": "5.01 µM (inconclusive)"}, {"measurement": "IC50", "setting": "[1]", "result": "1.9 µM (active)"}, {"measurement": "IC50", "setting": "[2]", "result": "10.7 µM (active)"}, {"measurement": "IC50", "setting": "[3]", "result": "8.67 µM (active)"}, {"measurement": "IC50", "setting": "[4]", "result": "26.8 µM (inactive)"}, {"measurement": "AC50", "setting": "Cytochrome P450 2C9", "result": "1.41 µM (inconclusive)"}]}, {"molecule": "Oc1nc2cc3ccccc3cc2nc1-c1nnnn1C1CCCC1", "values": [{"measurement": "IC50", "setting": "[5]", "result": "2.21 µM (active)"}, {"measurement": "IC50", "setting": "[6]", "result": "1.05 µM (active)"}]}, {"molecule": "CN1CCN(CCCNC(=O)c2ccc(/C=C3\\Oc4ccccc4N(Cc4ccccc4F)C3=O)cc2)CC1", "values": [{"measurement": "IC50", "setting": "[7]", "result": "> 20 µM (inactive)"}, {"measurement": "AC50", "setting": "HeLa", "result": "17 µM (active)"}, {"measurement": "AC50", "setting": "[8]", "result": "8.16 µM (active)"}]}, {"molecule": "O=C(CSc1nnc(NC(=O)C2CCCCC2)s1)NCc1ccco1", "values": [{"measurement": "IC50", "setting": "Beta-lactamase [9]", "result": "> 59.6 µM (inactive)"}, {"measurement": "IC50", "setting": "Beta-lactamase [10]", "result": "> 59.6 µM (inactive)"}, {"measurement": "IC50", "setting": "Beta-lactamase [11]", "result": "> 59.6 µM (inactive)"}]}, {"molecule": "CNc1ccc2ncc(-c3ccc(OC)c(OC)c3)n2n1", "values": [{"measurement": "IC50", "setting": "[12]", "result": "1.69 µM (active)"}]}, {"molecule": "Cc1cc(C)c2c(N)c3ccccc3nc2n1", "values": [{"measurement": "EC50", "setting": "[13]", "result": "3.6 µM (active)"}, {"measurement": "EC50", "setting": "[14]", "result": "8.34 µM (active)"}, {"measurement": "EC50", "setting": "cells [15]", "result": "32.3 µM (active)"}, {"measurement": "EC50", "setting": "H4", "result": "> 120 µM (not active)"}, {"measurement": "EC50", "setting": "cells [16]", "result": "> 350 µM (not active)"}, {"measurement": "AC50", "setting": "Cytochrome P450 2C19", "result": "5.62 µM (inconclusive)"}, {"measurement": "AC50", "setting": "[17]", "result": "41.4 µM (active)"}, {"measurement": "AC50", "setting": "[18]", "result": "5.7 µM (active)"}, {"measurement": "AC50", "setting": "Cytochrome P450 2D6", "result": "20 µM (inconclusive)"}]}, {"molecule": "CCCc1cc(=O)oc2c(C)c(OCC(=O)NCCN3CCOCC3)ccc12", "values": [{"measurement": "IC50", "setting": "[19]", "result": "35.9 µM (inactive)"}, {"measurement": "IC50", "setting": "Steroidogenic factor 1", "result": "12.4 µM (inactive)"}, {"measurement": "IC50", "setting": "[20]", "result": "35.9 µM (inactive)"}]}]}
